Assays:
[1] = biological target: catalytic domain (JH1, amino acids 808-1132) of human JAK2 (Homo sapiens, UniProt O60674); assay: JAK2 HTRF Enzyme Activity Assay; assay type: biochemical; details: ATP 30 µM, 60 minutes at 25° C.; read-out: V617F ENZ 30 UM
[2] = biological target: T1, pseudo-kinase domain (JH2, amino-acids 536-812) of human V617F mutant JAK2 (Homo sapiens, UniProt O60674, F794H/V617F/W659A/W777A); assay: JAK2 LanthaScreen JH2-V617F Binding Assay; details: JAK2 JH2-V617F 0.26 nM, 50 nM tracer, 1 hour at 25° C.; read-out: JH2 BIND V617F
T1 construct: pseudo-kinase domain (JH2, amino-acids 536-812 with 3 surface mutations W659A, W777A, F794H); His (C); purchased BPS Bioscience 79498; host or cells: baculovirus expression system
T1 sequence (O60674 536-812 V617F/W659A/W777A/F794H): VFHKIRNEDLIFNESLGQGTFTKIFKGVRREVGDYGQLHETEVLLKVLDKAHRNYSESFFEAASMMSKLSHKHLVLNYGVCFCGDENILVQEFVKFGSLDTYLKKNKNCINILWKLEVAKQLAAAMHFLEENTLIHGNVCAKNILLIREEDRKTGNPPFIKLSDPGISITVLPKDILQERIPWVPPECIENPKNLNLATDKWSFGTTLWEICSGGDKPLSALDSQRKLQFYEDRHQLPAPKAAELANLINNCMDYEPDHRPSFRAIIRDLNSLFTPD
Summary of the method: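 Binding was measured as TR-FRET displacement of 50 nM tracer from 0.26 nM biotinylated His-Avi protein, incubated one hour at 25° C; IC50 from a four-parameter fit.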

[3] = biological target: T2, pseudo-kinase domain (JH2, amino-acids 536-812) of human Wild Type JAK2 (Homo sapiens, UniProt O60674, F794H/W659A/W777A); assay: JAK2 LanthaScreen JH2-WT Binding Assay; details: JAK2 JH2-WT 0.145 nM, 50 nM tracer, 1 hour at 25° C.; read-out: JH2 BIND WT
T2 construct: pseudo-kinase domain (JH2, amino-acids 536-812 with 3 surface mutations W659A, W777A, F794H); His (C); purchased BPS Bioscience 79463; host or cells: baculovirus expression system
T2 sequence (O60674 536-812 W659A/W777A/F794H): as the sequence (O60674 536-812 V617F/W659A/W777A/F794H) above, with F82V counted along it
Summary of the method: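 Binding was measured by TR-FRET between streptavidin-Tb (0.25 nM) on biotinylated JH2 (0.145 nM) and 50 nM fluorescent tracer, with compound dose series, 1 h at 25° C; IC50 fitted.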

[4] = biological target: T3, catalytic domain (JH1, amino acids 826-1132) of human JAK2 (Homo sapiens, UniProt O60674); assay: JAK2 LanthaScreen JH1 Binding Assay; details: JAK2 JH1 1.5 nM, 50 nM tracer, 2 hours at 25° C.; read-out: JH1 BIND
T3 construct: catalytic domain (JH1, amino acids 826-1132) of human JAK2; FLAG (N); biotin (biotinylated); purchased Carna Biosciences 08-445-20N; host or cells: baculovirus expression system
T3 sequence (O60674 826-1132): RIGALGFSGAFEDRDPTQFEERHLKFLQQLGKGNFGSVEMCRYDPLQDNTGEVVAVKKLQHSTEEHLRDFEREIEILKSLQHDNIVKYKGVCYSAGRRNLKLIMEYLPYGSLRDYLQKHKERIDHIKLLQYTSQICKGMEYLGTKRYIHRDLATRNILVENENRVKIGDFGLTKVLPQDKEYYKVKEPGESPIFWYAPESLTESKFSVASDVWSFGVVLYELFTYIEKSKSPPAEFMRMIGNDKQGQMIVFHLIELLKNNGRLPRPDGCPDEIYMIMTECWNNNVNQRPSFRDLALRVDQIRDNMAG
Summary of the method: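 TR-FRET tracer-displacement format: compound IC50 from four-parameter curves after 2 h at 25° C. Reaction held 1.5 nM biotinylated, FLAG-tagged JH1 (aa 826-1132), 50 nM tracer, 0.5 nM Streptavidin-Tb, pH 7.5 Tris buffer; 2 mM ATP set nonspecific background.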

Sequence of catalytic domain (JH1, amino acids 808-1132) of human JAK2 (O60674 808-1132 limits assumed): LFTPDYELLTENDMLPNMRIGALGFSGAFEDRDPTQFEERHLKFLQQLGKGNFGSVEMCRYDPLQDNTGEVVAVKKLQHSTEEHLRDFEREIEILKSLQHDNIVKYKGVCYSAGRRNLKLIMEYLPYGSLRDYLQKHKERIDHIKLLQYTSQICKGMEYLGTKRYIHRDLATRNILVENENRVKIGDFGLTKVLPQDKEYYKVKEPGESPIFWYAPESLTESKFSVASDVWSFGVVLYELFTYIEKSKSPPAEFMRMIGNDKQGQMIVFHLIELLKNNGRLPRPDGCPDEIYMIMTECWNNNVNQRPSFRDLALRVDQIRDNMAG

SMILES	IC50 [1] [nM]	IC50 [2] [nM]	IC50 [3] [nM]	IC50 [4] [nM]
[2H]C([2H])([2H])n1c(=O)n([C@@H]2CC[C@@H](NC(=O)OC)C2)c2cc(Nc3cc(C(=O)N4CCOCC4)cc(-c4ccc5c(c4)OCCO5)n3)ncc21 [Example 82, Methyl ((1R,3R)-3-(6-((6-(2,3-dihydrobenzo[b][1,4]dioxin-6-yl)-4-(morpholine-4-carbonyl)pyridin-2-yl)amino)-3-(methyl-d3)-2-oxo-2,3-dihydro-1H-imidazo[4,5-c]pyridin-1-yl)cyclopentyl)carbamate]	> 1000	≤ 10	≤ 10	> 1000
COC(=O)N[C@@H]1CC[C@@H](n2c(=O)n(C)c3cnc(Nc4ccnc(NC5CCC(F)(F)C5)n4)cc32)C1 (stereo partly drawn) [Example 83, Methyl ((1R,3R)-3-(6-((2-((3,3-difluorocyclopentyl)amino)pyrimidin-4-yl)amino)-3-methyl-2-oxo-2,3-dihydro-1H-imidazo[4,5-c]pyridin-1-yl)cyclopentyl)carbamate]	> 1000	10 to 100	≤ 10	> 1000
COC(=O)N[C@@H]1CC[C@@H](n2c(=O)n(C)c3cnc(Nc4cc(C)nc(N5CCC(F)(F)C5)n4)cc32)C1 [Example 84, Methyl ((1R,3R)-3-(6-((2-(3,3-difluoropyrrolidin-1-yl)-6-methylpyrimidin-4-yl)amino)-3-methyl-2-oxo-2,3-dihydro-1H-imidazo[4,5-c]pyridin-1-yl)cyclopentyl)carbamate]	> 1000	≤ 10	≤ 10	> 1000
COC(=O)N[C@@H]1CC[C@@H](n2c(=O)n(C)c3cnc(Nc4ccnc(NC5CCOCC5)n4)cc32)C1 [Example 85, Methyl ((1R,3R)-3-(3-methyl-2-oxo-6-((2-((tetrahydro-2H-pyran-4-yl)amino)pyrimidin-4-yl)amino)-2,3-dihydro-1H-imidazo[4,5-c]pyridin-1-yl)cyclopentyl)carbamate]	> 1000	10 to 100	10 to 100	> 1000
COC(=O)N[C@@H]1CC[C@@H](n2c(=O)n(C)c3cnc(Nc4cccc(C(=O)N5CCCCC5)n4)cc32)C1 [Example 86, Methyl ((1R,3R)-3-(3-methyl-2-oxo-6-((6-(piperidine-1-carbonyl)pyridin-2-yl)amino)-2,3-dihydro-1H-imidazo[4,5-c]pyridin-1-yl)cyclopentyl)carbamate]	> 1000	100 to 500	10 to 100	> 1000
COC(=O)N[C@@H]1CC[C@@H](n2c(=O)n(C)c3cnc(Nc4cccc(C(=O)NC5CCCCC5)n4)cc32)C1 [Example 87, Methyl ((1R,3R)-3-(6-((6-(cyclohexylcarbamoyl)pyridin-2-yl)amino)-3-methyl-2-oxo-2,3-dihydro-1H-imidazo[4,5-c]pyridin-1-yl)cyclopentyl)carbamate]	> 1000	10 to 100	≤ 10	> 1000
[2H]C([2H])([2H])n1c(=O)n([C@@H]2CC[C@@H](NC(=O)OC)C2)c2cc(Nc3ccc4c(n3)c(-c3cnn(C(F)(F)F)c3)cn4CCOC)ncc21 [Example 88, Methyl ((1R,3R)-3-(6-((1-(2-methoxyethyl)-3-(1-(trifluoromethyl)-1H-pyrazol-4-yl)-1H-pyrrolo[3,2-b]pyridin-5-yl)amino)-3-(methyl-d3)-2-oxo-2,3-dihydro-1H-imidazo[4,5-c]pyridin-1-yl)cyclopentyl)carbamate]	> 1000	≤ 10	≤ 10	> 1000
[2H]C([2H])([2H])n1c(=O)n([C@@H]2CC[C@@H](NC(=O)OC)C2)c2cc(Nc3cc(-c4cnccc4C(F)(F)F)c4c(n3)n(-c3cnn(C(F)F)c3)c(=O)n4C)ncc21 [Example 89, Methyl ((1R,3R)-3-(6-((3-(1-(difluoromethyl)-1H-pyrazol-4-yl)-1-methyl-2-oxo-7-(4-(trifluoromethyl)pyridin-3-yl)-2,3-dihydro-1H-imidazo[4,5-b]pyridin-5-yl)amino)-3-(methyl-d3)-2-oxo-2,3-dihydro-1H-imidazo[4,5-c]pyridin-1-yl)cyclopentyl)carbamate]	> 1000	≤ 10	≤ 10	> 1000
[2H]C([2H])([2H])n1c(=O)n(C2CC3(CC(NC(=O)C4CC4)C3)C2)c2cc(Nc3cc(C(=O)N4CCOCC4)c4cccc(C(F)(F)F)c4n3)ncc21 (stereo not drawn) [Example 90, N-(6-(3-(Methyl-d3)-6-((4-(morpholine-4-carbonyl)-8-(trifluoromethyl)quinolin-2-yl)amino)-2-oxo-2,3-dihydro-1H-imidazo[4,5-c]pyridin-1-yl)spiro[3,3]heptan-2-yl)cyclopropanecarboxamide]	> 1000	≤ 10	≤ 10	100 to 500
[2H]C([2H])([2H])n1c(=O)n([C@@H]2CC[C@](C)(NC(=O)C3CC3)C2)c2cc(Nc3cc(C(C)(C)O)cc(-c4ncc(Cl)s4)n3)ncc21 [Example 92, N-((1S,3R)-3-(6-((6-(5-Chlorothiazol-2-yl)-4-(2-hydroxypropan-2-yl)pyridin-2-yl)amino)-3-(methyl-d3)-2-oxo-2,3-dihydro-1H-imidazo[4,5-c]pyridin-1-yl)-1-methylcyclopentyl)cyclopropanecarboxamide]	> 1000	≤ 10	≤ 10	> 1000
[2H]C([2H])([2H])n1c(=O)n([C@@H]2CC[C@@H](NC(=O)OC)C2)c2cc(Nc3cc(C(C)(C)O)cc(-c4ncc(Cl)s4)n3)ncc21 [Example 93, Methyl ((1R,3R)-3-(6-((6-(5-chlorothiazol-2-yl)-4-(2-hydroxypropan-2-yl)pyridin-2-yl)amino)-3-(methyl-d3)-2-oxo-2,3-dihydro-1H-imidazo[4,5-c]pyridin-1-yl)cyclopentyl)carbamate]	> 1000	≤ 10	≤ 10	> 1000
[2H]C([2H])([2H])n1c(=O)n([C@@H]2CC[C@@H](NC(=O)OC)C2)c2cc(Nc3cc(C(C)(C)O)c4cc(-c5cnn(C)c5)cc(C(F)(F)F)c4n3)ncc21 [Example 94, Methyl ((1R,3R)-3-(6-((4-(2-hydroxypropan-2-yl)-6-(1-methyl-1H-pyrazol-4-yl)-8-(trifluoromethyl)quinolin-2-yl)amino)-3-(methyl-d3)-2-oxo-2,3-dihydro-1H-imidazo[4,5-c]pyridin-1-yl)cyclopentyl)carbamate]	> 1000	≤ 10	≤ 10	> 1000
[2H]C([2H])([2H])n1c(=O)n([C@@H]2CC[C@@H](NC(=O)OC)C2)c2cc(Nc3cc(C(C)(C)O)cc(-c4cnc(C(F)(F)F)s4)n3)ncc21 [Example 95, Methyl ((1R,3R)-3-(6-((4-(2-hydroxypropan-2-yl)-6-(2-(trifluoromethyl)thiazol-5-yl)pyridin-2-yl)amino)-3-(methyl-d3)-2-oxo-2,3-dihydro-1H-imidazo[4,5-c]pyridin-1-yl)cyclopentyl)carbamate]	> 1000	≤ 10	≤ 10	> 1000
[2H]C([2H])([2H])n1c(=O)n([C@@H]2CC[C@@H](NC(=O)OC)C2)c2cc(Nc3cc(C(=O)N4CCOCC4)c4cccc(C(C)(C)C#N)c4n3)ncc21 [Example 96, Methyl ((1R,3R)-3-(6-((8-(2-cyanopropan-2-yl)-4-(morpholine-4-carbonyl)quinolin-2-yl)amino)-3-(methyl-d3)-2-oxo-2,3-dihydro-1H-imidazo[4,5-c]pyridin-1-yl)cyclopentyl)carbamate]	> 1000	≤ 10	≤ 10	> 1000
[2H]C([2H])([2H])n1c(=O)n([C@@H]2CC[C@@H](NC(=O)OC)C2)c2cc(Nc3ccc(OC)c(-c4ncc(C(F)(F)F)s4)n3)ncc21 [Example 98, Methyl ((1R,3R)-3-(6-((5-methoxy-6-(5-(trifluoromethyl)thiazol-2-yl)pyridin-2-yl)amino)-3-(methyl-d3)-2-oxo-2,3-dihydro-1H-imidazo[4,5-c]pyridin-1-yl)cyclopentyl)carbamate]	> 1000	≤ 10	≤ 10	> 1000
